Like-named read-outs stand apart in the source and are kept apart here.
Experiments:
[1] = target: T1, Gastrin receptor (gastric glands) (Cavia porcellus, UniProt H0VZC5); assay: Gastrin Receptor Binding in Guinea Pig Gastric Glands; design: species or system guinea pig (male Hartley)
T1 construct: The washed guinea pig gastric glands prepared as above were resuspended; from tissue; host or cells: guinea pig gastric mucosal glands (male Hartley)
T1 sequence (H0VZC5 1-426): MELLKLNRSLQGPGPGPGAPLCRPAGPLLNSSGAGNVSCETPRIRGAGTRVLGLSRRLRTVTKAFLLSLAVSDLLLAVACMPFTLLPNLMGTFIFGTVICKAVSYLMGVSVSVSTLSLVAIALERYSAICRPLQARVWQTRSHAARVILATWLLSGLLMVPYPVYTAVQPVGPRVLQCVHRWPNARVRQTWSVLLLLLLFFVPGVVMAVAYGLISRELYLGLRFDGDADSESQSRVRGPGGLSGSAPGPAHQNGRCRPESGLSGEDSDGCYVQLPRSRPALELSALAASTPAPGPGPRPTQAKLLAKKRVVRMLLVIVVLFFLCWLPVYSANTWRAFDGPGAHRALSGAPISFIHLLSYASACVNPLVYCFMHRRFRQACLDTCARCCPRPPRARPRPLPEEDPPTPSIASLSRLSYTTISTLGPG

CCK receptor (pancreas) = target: T2, CCK receptor (pancreas) (Rattus norvegicus, UniProt P30551); assay: CCK Receptor Binding (Pancreas): inhibition of ^125 I-CCK-33 binding; design: species or system Male Sprague-Dawley rats
T2 construct: The whole pancreas was dissected free of fat tissue and was homogenized; from tissue; host or cells: rat pancreas membranes (Sprague-Dawley)
T2 sequence (P30551 1-444): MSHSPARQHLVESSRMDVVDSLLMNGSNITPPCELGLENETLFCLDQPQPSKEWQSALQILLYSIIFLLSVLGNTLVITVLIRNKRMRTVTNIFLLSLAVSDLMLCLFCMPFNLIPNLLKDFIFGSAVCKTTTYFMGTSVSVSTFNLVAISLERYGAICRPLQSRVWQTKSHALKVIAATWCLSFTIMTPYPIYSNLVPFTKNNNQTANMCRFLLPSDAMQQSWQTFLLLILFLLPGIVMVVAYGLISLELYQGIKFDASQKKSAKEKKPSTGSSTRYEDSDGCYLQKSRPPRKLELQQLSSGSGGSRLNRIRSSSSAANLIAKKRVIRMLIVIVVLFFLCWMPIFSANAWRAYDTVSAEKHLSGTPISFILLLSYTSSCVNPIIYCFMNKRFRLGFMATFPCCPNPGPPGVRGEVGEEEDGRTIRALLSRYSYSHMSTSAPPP
In short: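 Rat (male Sprague-Dawley) pancreatic membranes in 50 mM Tris HCl pH 7.7 with DTT, bacitracin, PMSF and o-phenanthroline; ^125I-Bolton Hunter-labelled CCK-33 as radioligand. Incubation 30 min at 37° C, separation by centrifugation, pellet gamma-counted; Scatchard analysis by diluting ^125I-CCK-33 with increasing CCK-33.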

[2] = target: T3, CCK receptor (brain, cerebral cortex) (Cavia porcellus, UniProt H0VZC5); assay: biochemical; type: binding, Male Hartley guinea pigs
T3 construct: Cerebral cortex was dissected and used as a receptor source; from tissue; host or cells: guinea pig cerebral cortex membranes (male Hartley)
T3 sequence (H0VZC5 1-426): T1 sequence (H0VZC5 1-426)
In short: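 Guinea pig cerebral cortex homogenate as receptor source, with radiolabeled CCK-33 in HEPES buffer containing MgCl2, bacitracin, EGTA and 0.4% BSA. Incubation 2 h at 25°C; bound ligand pelleted by centrifugation and gamma-counted.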

[3] = ^125 I-gastrin, 25° C., 30 minutes, read-out: IC50 ^125 I-Gastrin Gastric Glands
[4] = IC50 ^125 I-CCK Pancreas, rat pancreas membranes, ^125 I-CCK-33, 37° C., 30 minutes
[5] = guinea pig cerebral cortex, ^125 I-CCK-33, 25° C., 2 hours, read-out: IC50 ^125 I-CCK Brain
[6] = IC50 ^125 I-Gastrin Gastric Glands, 25° C., 30 minutes
[7] = IC50 ^125 I-CCK Brain, guinea pig cerebral cortex, ^125 I-CCK-33, 25° C., 2 hours
[8] = rat pancreas membranes, ^125 I-CCK-33, 37° C., 30 minutes; read-out: IC50 ^125 I-CCK Pancreas
[9] = read-out: IC50 ^125 I-CCK Pancreas; rat pancreas membranes, ^125 I-CCK-33, 37° C., 30 minutes
[10] = read-out: IC50 ^125 I-CCK Brain, guinea pig cerebral cortex, ^125 I-CCK-33, 25° C., 2 hours
[11] = read-out: IC50 ^125 I-Gastrin Gastric Glands, 25° C., 30 minutes

Structure (SMILES)	IC50 [1, 3]	IC50 (CCK receptor (pancreas); [4])	IC50 [1, 6]	IC50 [2, 7]	IC50 (CCK receptor (pancreas); [8])	also measured
O=C(OC1N=C(c2ccccc2F)c2ccccc2N(C(=O)c2ccc(Cl)cc2)C1=O)c1ccc(Cl)cc1 (racemic) [Example 178, 1-(4-Chlorophenyl)carbonyl-1,3-dihydro-5-(2-fluorophenyl)-3(RS)-(4-chlorophenyl)carbonyloxy-2H-1,4-benzodiazepin-2-one]	> 100 µM	4.9 µM				IC50 [2, 5]: > 100 µM
O=C(OC1N=C(c2ccccc2F)c2ccccc2NC1=O)c1ccc(Cl)cc1 (racemic) [Example 179, 1,3-Dihydro-5-(2-fluorophenyl)-3(RS)-(4-chlorobenzoyl)oxy-2H-1,4-benzodiazepin-2-one]		4.4 µM	18 µM	3.6 µM		
O=C(NC1N=C(c2ccccc2F)c2ccccc2NC1=S)c1ccc(Cl)cc1 (racemic) [Example 180, 1,3-Dihydro-5-(2-fluorophenyl)-3-(RS)-(4-chlorophenyl)carbonylamino-2H-1,4-benzodiazepin-2-thione]		0.016 µM	11 µM	> 100 µM		
O=C(NC1N=C(c2ccccc2F)c2ccccc2NC1=S)c1cc2ccccc2[nH]1 (racemic) [Example 181, 1,3-Dihydro-5-(2-fluorophenyl)-3-(RS)-(2-indole) carbonylamino-2H-1,4-benzodiazepin-2-thione]		0.002 µM	4.4 µM	9.3 µM		
CC(C)(C)OC(=O)N[C@H](Cc1c[nH]c2ccccc12)C(=O)Nc1ccccc1C(=O)c1ccccc1F [Example 1, 2-N-(Nα-Boc-D-tryptophanyl)amino-2'-fluorobenzophenone]	167 µM				67 µM	IC50 ([2]; read-out: IC50 ^125 I-CCK Brain): > 100 µM
CSC1=N[C@@H](Cc2cn(C)c3ccccc23)C(=O)N(C)c2ccccc21 [Example 7, 1,3-Dihydro-3(S)-[3'-(1'-methylindolyl)methyl]-1-methyl-5-methylthio-2H-1,4-benzodiazepin-2-one]	> 100 µM				> 100 µM	IC50 [2, 5]: 100 µM
CSC1=N[C@@H](Cc2c[nH]c3ccccc23)C(=O)N(C)c2ccccc21 [Example 8, 1,3-Dihydro-3(S)-(3'-indolyl)methyl-1-methyl-5-methylthio-2H-1,4-benzodiazepin-2-one]	227 µM				100 µM	IC50 [2, 5]: 100 µM
O=C1Nc2ccccc2C(c2ccccc2F)=N[C@@H]1CC1CNc2ccccc21 (stereo partly drawn) [Example 9]	78 µM	10.7 µM		48 µM		
O=C1Nc2ccccc2C(c2ccccc2F)=N[C@@H]1CC1CNc2ccccc21 (stereo partly drawn) [Example 10]	47 µM					IC50 (CCK receptor (pancreas); [9]): 16.7 µM; IC50 [2, 10]: > 100 µM
CC(C)C[C@H]1N=C(c2ccccc2)c2cc(Cl)ccc2NC1=O [Example 14, 7-Chloro-1,3-dihydro-3(R)-(2-methyl-1-propyl)-5-phenyl-2H-1,4-benzodiazepin-2-one]		42 µM	12 µM	60 µM		
O=C1Nc2ccc(Cl)cc2C(c2ccccc2)=N[C@@H]1COCc1ccccc1 [Example 15, 3(R)-Benzyloxymethyl-7-chloro-1,3-dihydro-5-phenyl-2H-1,4-benzodiazepin-2-one]		60 µM	38 µM	80 µM		
O=C(NN=C1Nc2ccccc2C(c2ccccc2F)=N[C@@H]1Cc1c[nH]c2ccccc12)c1ccsc1 [Example 35, 1,3-Dihydro-5-(2-fluorophenyl)-3(R)-(3'-indolyl)methyl-2H-1,4-benzodiazepin-2-[N'-(3-thienoyl)]hydrazide]		10 µM	> 100 µM	15 µM		
CCN1C(=O)[C@@H](Cc2c[nH]c3ccccc23)N=C(c2ccccc2F)c2ccccc21 [Example 36, 1,3-Dihydro-1-ethyl-5-(2-fluorophenyl)-3(R)-(3'-indolyl)methyl-2H-1,4-benzodiazepin-2-one]		0.3 µM	> 100 µM	30 µM		
CC(C)CCN1C(=O)[C@@H](Cc2c[nH]c3ccccc23)N=C(c2ccccc2F)c2ccccc21 [Example 39, 1,3-Dihydro-5-(2-fluorophenyl)-3(R)-(3'-indolyl) methyl-1-(3-methylbutyl)-2H-1,4-benzodiazepine-2-one]		100 µM	23 µM	30 µM		
O=C(O)CN1C(=O)[C@@H](Cc2c[nH]c3ccccc23)N=C(c2ccccc2F)c2ccccc21 [Example 43]						IC50 [1, 11]: 5 µM; IC50 (CCK receptor (pancreas); [9]): 0.3 µM; IC50 [2, 10]: 23 µM
CN1C(=O)[C@@H](Cc2cn(C(=O)c3ccc(Cl)cc3)c3ccccc23)N=C(c2ccccc2F)c2ccccc21 [Example 45, 1,3-Dihydro-5-(2-fluorophenyl)-3(R)-[3'-(1'-p-chlorobenzyloylindolyl)methyl]-1-methyl-2H-1,4-benzodiazepin-2-one]						IC50 [1, 11]: > 1000 µM; IC50 (CCK receptor (pancreas); [9]): 10.6 µM; IC50 [2, 10]: > 100 µM
O=C1Nc2ccc(Cl)cc2C(c2ccccc2)=N[C@@H]1Cc1cn(-c2ccc([N+](=O)[O-])cc2[N+](=O)[O-])cn1 [Example 55, 7-Chloro-1,3-dihydro-3(R)-[(3'-(2,4-dinitrophenyl)imidazol-5'-yl)-methyl]-5-phenyl-2H-1,4-benzodiazepin-2-one]	76 µM	7.6 µM				IC50 [2, 5]: 38.6 µM
NCCCC[C@H]1N=C(c2ccccc2F)c2ccccc2NC1=O [Example 65, 1,3-Dihydro-5-(2'-fluorophenyl)-3(R)-(4-amino)butyl-2H-1,4-benzodiazepin-2-one]		> 100 µM	> 1000 µM	> 100 µM		
CN1C(=O)[C@@H](N)N=C(c2ccccc2)c2ccccc21 [Example 85a, 3(S)-(-)-3-Amino-1,3-dihydro-1-methyl-5-phenyl-2H-1,4-benzodiazepin-2-one]			> 100 µM	> 100 µM	100 µM	
CN1C(=O)[C@@H](NC(=O)c2cc3ccccc3[nH]2)N=C(c2ccccc2F)c2ccccc21 [Example 88, 3(S)-(+)-1,3-Dihydro-5-(2-fluorophenyl)-3-(2-indole-carbonylamino)-1-methyl-2H-1,4-benzodiazepin-2-one]	0.027 µM			0.3 µM	0.0006 µM	
CN1C(=O)[C@H](NC(=O)c2cc3ccccc3[nH]2)N=C(c2ccccc2F)c2ccccc21 [Example 89, 3(R)-(-)-1,3-Dihydro-5-(2-fluorophenyl)-3-(2-indole-carbonylamino)-1-methyl-2H-1,4-benzodiazepin-2-one]	0.24 µM			1.1 µM	0.019 µM	
CN1C(=O)[C@H](NC(=O)c2ccc(Cl)cc2)N=C(c2ccccc2F)c2ccccc21 [Example 90, 3(R)-(-)-1,3-Dihydro-3-(4-chlorobenzoylamino)-5-(2-fluorophenyl)-1-methyl-2H-1,4-benzodiazepin-2-one]	5.2 µM			11 µM	0.049 µM	
CN1C(=O)[C@@H](NC(=O)c2ccc(Cl)cc2)N=C(c2ccccc2F)c2ccccc21 [Example 91, 3(S)-(+)-1,3-Dihydro-3-(4-chlorobenzoylamino)-5-(2-fluorophenyl)-1-methyl-2H-1,4-benzodiazepin-2-one]	0.8 µM			2.9 µM	0.0025 µM	
CN1C(=O)[C@@H](NC(=O)c2ccc(Br)cc2)N=C(c2ccccc2)c2ccccc21 [Example 92, 3(S)-(-)-1,3-Dihydro-3-(4-bromobenzoylamino)-1-methyl-5-phenyl-2H-1,4-benzodiazepin-2-one]	0.62 µM	0.0043 µM		1.6 µM		

Reference: US4820834A, “Benzodiazepine analogs” (priority 1987, dated 1989)
